Assay [1] has as its system C6-ADR cells. The assay is described as follows: Intracellular DOX quantification. The assay is classed as cell-based, rat. The following applies: for intracellular concentration of DOX: 1000 ng/mL DOX. As for the experimental part: Concurrently, intracellular concentration of DOX was determined (FIG. 6B) by UV analysis.
For assay [2], the system named is C6-ADR cells. Kind of assay: Fluorescence and confocal imaging of intracellular DOX. The assay is classed as cell-based, rat. The procedure: The internalization pathway of free DOX and NP-DOX were investigated by labeling endosomal compartments of cells with calcein after incubation with cells for 4 h.
C6-ADR cells were plated at 500,000 cells per well in 6-well plates containing 22×22 mm glass cover slips the night before treatment. Cells were treated with 1000 ng/mL free DOX or NP-DOX with equimolar concentration of DOX in 2 mL fully supplemented DMEM for 4 hrs before cells were washed three times with PBS and 2 mL fresh fully supplemented media added. After 24 hrs, cells were washed three times with PBS, and fixed in 4% formaldehyde (Polysciences Inc., Warrington, Pa.) for 30 min. Cell membranes were stained with wheat germ agglutinin, Alexa Fluor 488 conjugates (WGA-AF488, Invitrogen, Carlsbad, Calif.) following the manufacturer's protocol. The cover slips were then mounted on microscope slides using Prolong Gold anti-fade solution (Invitrogen, Carlsbad, Calif.) containing DAPI for cell nuclei staining. Images were acquired on an inverted fluorescent microscope (Nikon Instruments, Melville, N.Y.) with the appropriate filters using a Nikon Ril Color Cooled Camera System and 60× oil objective Lens. For internalization pathway experiment, cells were treated with DOX or NP-DOX in the presence of 0.25 mM calcein for 4 hrs. […] DOX and calcein uptake were analyzed using confocal microscopy (Zeiss 510 Meta).

For `COc1cccc2c1C(=O)c1c(O)c3c(c(O)c1C2=O)C[C@@](O)(C(=O)CO)C[C@@H]3O[C@H]1C[C@H](N)[C@H](O)[C@H](C)O1.Cl` [free DOX, Doxorubicin.HCl], the “intracellular concentration of DOX” value in the assay on C6-ADR cells [1] (24 h after treatment) amounted to 0.13±0.01 pg/cell; with C6-ADR cells [1] (four hours after treatment) it was 1.49±0.05 pg/cell. Further, in the assay with C6-ADR cells [1] (by 24 h after initial exposure), the “decrease of intracellular DOX concentration” value was 91%. Besides, in the assay with C6-ADR cells [2] (C6-ADR cells treated 4 h, imaged 24 h after initial incubation), the “intracellular DOX fluorescence” value is recorded as “minimal fluorescence”. Moreover, in the assay on C6-ADR cells [2] (C6-ADR cells, 4 h incubation, confocal), the “intracellular localization of DOX signal (calcein-labeled endosomes)” value was “partially colocalized with nucleus and partially localized in cytoplasma”.

The values above are taken from patent US9687569B2, “Theranostic nanoparticle and methods for making and using the nanoparticle” (priority 2012, dated 2017).
